Our source for the inhibition, IC50 and NI values is ChEMBL document CHEMBL1133604, “1-imidazolyl(alkyl)-substituted di- and tetrahydroquinolines and analogues: syntheses and evaluation of dual inhibitors of thromboxane A(2) synthase and aromatase” (J Med Chem, 2000).

In assay [1] the target is T1, Steroid 17-alpha-hydroxylase/17,20 lyase (Rattus norvegicus, UniProt P11715).
T1 sequence (P11715 whole entry): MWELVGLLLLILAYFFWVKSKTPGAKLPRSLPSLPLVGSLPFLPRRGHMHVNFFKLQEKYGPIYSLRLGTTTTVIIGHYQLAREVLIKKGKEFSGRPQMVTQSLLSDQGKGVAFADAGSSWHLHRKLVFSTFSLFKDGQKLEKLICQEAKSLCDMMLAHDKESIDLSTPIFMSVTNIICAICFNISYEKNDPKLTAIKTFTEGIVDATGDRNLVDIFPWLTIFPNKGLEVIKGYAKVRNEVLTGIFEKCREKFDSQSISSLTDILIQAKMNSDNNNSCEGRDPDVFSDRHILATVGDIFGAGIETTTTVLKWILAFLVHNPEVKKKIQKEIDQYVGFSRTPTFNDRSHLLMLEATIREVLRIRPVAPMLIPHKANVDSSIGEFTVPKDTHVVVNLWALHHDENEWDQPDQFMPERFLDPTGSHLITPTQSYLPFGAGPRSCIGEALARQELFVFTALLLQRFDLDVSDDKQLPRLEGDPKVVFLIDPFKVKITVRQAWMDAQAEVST

Assay [2] deals with T1, Steroid 17-alpha-hydroxylase/17,20 lyase. This is another data set of the same source.
Assay [3] addresses T2, Thromboxane-A synthase (Homo sapiens, UniProt P24557).
T2 sequence (P24557 whole entry): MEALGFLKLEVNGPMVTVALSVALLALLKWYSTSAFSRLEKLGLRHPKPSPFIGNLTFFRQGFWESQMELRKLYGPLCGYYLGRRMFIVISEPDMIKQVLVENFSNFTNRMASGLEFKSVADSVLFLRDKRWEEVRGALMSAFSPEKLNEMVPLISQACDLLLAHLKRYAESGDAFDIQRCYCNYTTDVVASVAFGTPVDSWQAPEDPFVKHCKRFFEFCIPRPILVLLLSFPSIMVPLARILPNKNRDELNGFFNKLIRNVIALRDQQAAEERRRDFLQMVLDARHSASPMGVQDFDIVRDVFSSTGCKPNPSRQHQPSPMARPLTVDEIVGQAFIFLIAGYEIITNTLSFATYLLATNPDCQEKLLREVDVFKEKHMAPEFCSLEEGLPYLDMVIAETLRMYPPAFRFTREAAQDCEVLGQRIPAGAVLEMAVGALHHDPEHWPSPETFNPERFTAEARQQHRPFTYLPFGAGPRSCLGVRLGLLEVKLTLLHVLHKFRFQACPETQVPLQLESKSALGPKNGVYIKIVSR
It counts as tissue-based, Blood.

A further assay in a line: cells. The note with it: Bos taurus. It counts as functional.
The species named for assay [4] is Bos taurus.
The species named for assay [5] is Bos taurus. The source holds these as a separate data set.
Assay [6] addresses T2, Thromboxane-A synthase.

Active and inactive are the calls of the source. No cut-off for these calls is given here.

Take `c1cnc2c(c1)C(n1ccnc1)CCC2` (stereo unspecified): in assay [1], testing at 125 µM gave an inhibition of 14%.

For `c1ccc2c(c1)CCCC2CCn1ccnc1` (stereo unspecified), the results for the IC50 (in assay [2]; against Thromboxane-A synthase [3]) were 20 µM and 3400 nM, respectively. Also, the inhibition at 125 µM in assay [1] was over 80%.

`c1cnc2c(c1)C(Cn1ccnc1)CCC2` (stereo unspecified): half-maximal inhibition against Thromboxane-A synthase [3] (IC50) was put at 2000 nM. This compound also registered an inhibition at 125 µM in assay [1] of 11%.

Consider `c1cc(CCn2ccnc2)c2ccsc2c1`, for which the IC50 on Thromboxane-A synthase [3] came to 5300 nM.

`c1cc(CCn2ccnc2)c2cccnc2c1` yielded an IC50 on Thromboxane-A synthase [3] of 1200 nM. The inhibition at 125 µM in assay [1] is 22%.

Regarding `c1cnc2c(c1)C(CCCn1ccnc1)CCC2` (stereo unspecified), at Thromboxane-A synthase [3], the IC50 is 2300 nM. At 125 µM the inhibition in assay [1] was 59%.

Consider `C1=C(CCn2ccnc2)c2cccnc2CC1`, for which the values for the IC50 in the assay “cells” and on Thromboxane-A synthase [3] were 173 nM and 290 nM, respectively. Moreover, the inhibition at 125 µM in assay [1] turned out to be 21%. The NI entry in the assay listed under Bos taurus [4] and in the assay listed under Bos taurus [5] was “inactive” throughout.

At Thromboxane-A synthase [3], `C(/Cn1ccnc1)=C1/CCCc2sccc21` displayed an IC50 of 1700 nM.

`C(/Cn1ccnc1)=C1\CCCc2occc21` displayed an IC50 against Thromboxane-A synthase [3] of 4100 nM.

Compound `c1cc2ccc(Cn3ccnc3)cc2cn1` showed an IC50 against Thromboxane-A synthase [3] of 5400 nM.

`C1=C(Cn2ccnc2)c2cccnc2CC1` displayed an IC50 at Thromboxane-A synthase [3] of 1500 nM. The compound further yielded an inhibition at 125 µM in assay [1] of 69%.

In the case of `c1cn(CCC2CCCc3occc32)cn1` (stereo unspecified), half-maximal inhibition on Thromboxane-A synthase [3] (IC50) was put at 1010 nM.

Take `c1cnc2c(c1)C(CCn1ccnc1)CCC2` (stereo unspecified): the IC50 in assay [2] is 125 µM; against Thromboxane-A synthase [3], 630 nM. In assay [1], this compound displayed an inhibition at 125 µM of 49%.

Compound `O=C(OC1CCCc2ncccc21)n1ccnc1` (stereo unspecified) had a concentration for half-maximal inhibition (IC50) on Thromboxane-A synthase [6] of 1600 nM.

The compound `c1cn(CCC2CCCc3sccc32)cn1` (stereo unspecified) displayed an IC50 against Thromboxane-A synthase [3] of 1230 nM.

As for `C(/Cn1ccnc1)=C1\CCCc2sccc21`, the IC50 against Thromboxane-A synthase [3] turned out to be 1260 nM.

As for `C(/Cn1ccnc1)=C1/CCCc2occc21`, the midpoint of inhibition on Thromboxane-A synthase [3], the IC50, lay at 3550 nM.

In turn, `C1=C(CCCn2ccnc2)c2cccnc2CC1` returned an IC50 on Thromboxane-A synthase [3] of 680 nM. Also, in assay [1], at 125 µM the inhibition was 79%.

Usually inhibition stands for the drop in the measured response relative to a control, in per cent. Low readings indicate a weak effect, high ones a strong effect. The term IC50 denotes the point on the concentration scale where inhibition reaches its midpoint. A higher IC50 goes with a need for much substance.
